Experimental data from publication PMC9569420 (Communications Biology, 2022).

Key:
EPHB1 = target: T1, EPHB1 (Homo sapiens, UniProt P54762); assay: HotSpot kinase assay; type: biochemical; details: read-out: % Enzyme Activity (relative to DMSO controls)
T1 construct: purchased Reaction Biology Corporation

SRMS = target: T2, SRMS (Homo sapiens, UniProt Q9H3Y6); assay: HotSpot kinase assay; type: biochemical; details: read-out: % Enzyme Activity (relative to DMSO controls)
T2 construct: purchased Reaction Biology Corporation

SSTK/TSSK6 = target: T3, SSTK/TSSK6 (Homo sapiens, UniProt Q9BXA6); assay: HotSpot kinase assay; type: biochemical; details: read-out: % Enzyme Activity (relative to DMSO controls)
T3 construct: purchased Reaction Biology Corporation

PASK = target: T4, PASK (Homo sapiens, UniProt Q96RG2); assay: HotSpot kinase assay; type: biochemical; details: read-out: % Enzyme Activity (relative to DMSO controls)
T4 construct: purchased Reaction Biology Corporation

LRRK2 = target: T5, LRRK2 (Homo sapiens, UniProt Q5S007); assay: HotSpot kinase assay; type: biochemical; details: read-out: % Enzyme Activity (relative to DMSO controls)
T5 construct: purchased Reaction Biology Corporation

FLT4/VEGFR3 = target: T6, FLT4/VEGFR3 (Homo sapiens, UniProt P35916); assay: HotSpot kinase assay; type: biochemical; details: read-out: % Enzyme Activity (relative to DMSO controls)
T6 construct: purchased Reaction Biology Corporation

TAOK1 = target: T7, TAOK1 (Homo sapiens, UniProt Q7L7X3); assay: HotSpot kinase assay; type: biochemical; details: read-out: % Enzyme Activity (relative to DMSO controls)
T7 construct: purchased Reaction Biology Corporation

TAOK3/JIK = target: T8, TAOK3/JIK (Homo sapiens, UniProt Q9H2K8); assay: HotSpot kinase assay; type: biochemical; details: read-out: % Enzyme Activity (relative to DMSO controls)
T8 construct: purchased Reaction Biology Corporation
T8 sequence (Q9H2K8 whole entry): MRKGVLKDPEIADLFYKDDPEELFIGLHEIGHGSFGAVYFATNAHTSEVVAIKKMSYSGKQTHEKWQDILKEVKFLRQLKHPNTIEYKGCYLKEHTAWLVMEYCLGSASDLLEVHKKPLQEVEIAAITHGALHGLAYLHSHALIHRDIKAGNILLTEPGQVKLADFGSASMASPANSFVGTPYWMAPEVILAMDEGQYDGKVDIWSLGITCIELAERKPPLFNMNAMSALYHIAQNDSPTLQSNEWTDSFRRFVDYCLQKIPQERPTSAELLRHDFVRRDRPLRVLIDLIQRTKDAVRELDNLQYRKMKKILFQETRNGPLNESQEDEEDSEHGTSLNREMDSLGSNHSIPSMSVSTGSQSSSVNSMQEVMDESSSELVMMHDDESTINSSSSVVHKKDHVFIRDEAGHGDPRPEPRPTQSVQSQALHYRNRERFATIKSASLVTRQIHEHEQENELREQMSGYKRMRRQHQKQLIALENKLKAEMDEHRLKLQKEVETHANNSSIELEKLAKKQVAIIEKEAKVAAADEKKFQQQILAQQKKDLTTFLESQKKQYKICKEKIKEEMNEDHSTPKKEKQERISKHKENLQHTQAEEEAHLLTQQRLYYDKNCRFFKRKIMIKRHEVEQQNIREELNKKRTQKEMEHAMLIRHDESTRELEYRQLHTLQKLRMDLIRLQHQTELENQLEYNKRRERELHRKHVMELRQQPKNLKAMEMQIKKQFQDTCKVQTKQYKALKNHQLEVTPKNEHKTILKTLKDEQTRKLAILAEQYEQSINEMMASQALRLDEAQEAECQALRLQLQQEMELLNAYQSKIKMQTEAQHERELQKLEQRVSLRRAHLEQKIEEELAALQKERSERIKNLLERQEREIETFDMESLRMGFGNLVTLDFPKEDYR

YSK4/MAP3K19 = target: T9, YSK4/MAP3K19 (Homo sapiens, UniProt Q56UN5); assay: HotSpot kinase assay; type: biochemical; details: read-out: % Enzyme Activity (relative to DMSO controls)
T9 construct: purchased Reaction Biology Corporation

TLK2 = target: T10, TLK2 (Homo sapiens, UniProt Q86UE8); assay: HotSpot kinase assay; type: biochemical; details: read-out: % Enzyme Activity (relative to DMSO controls)
T10 construct: purchased Reaction Biology Corporation
T10 sequence (Q86UE8 whole entry): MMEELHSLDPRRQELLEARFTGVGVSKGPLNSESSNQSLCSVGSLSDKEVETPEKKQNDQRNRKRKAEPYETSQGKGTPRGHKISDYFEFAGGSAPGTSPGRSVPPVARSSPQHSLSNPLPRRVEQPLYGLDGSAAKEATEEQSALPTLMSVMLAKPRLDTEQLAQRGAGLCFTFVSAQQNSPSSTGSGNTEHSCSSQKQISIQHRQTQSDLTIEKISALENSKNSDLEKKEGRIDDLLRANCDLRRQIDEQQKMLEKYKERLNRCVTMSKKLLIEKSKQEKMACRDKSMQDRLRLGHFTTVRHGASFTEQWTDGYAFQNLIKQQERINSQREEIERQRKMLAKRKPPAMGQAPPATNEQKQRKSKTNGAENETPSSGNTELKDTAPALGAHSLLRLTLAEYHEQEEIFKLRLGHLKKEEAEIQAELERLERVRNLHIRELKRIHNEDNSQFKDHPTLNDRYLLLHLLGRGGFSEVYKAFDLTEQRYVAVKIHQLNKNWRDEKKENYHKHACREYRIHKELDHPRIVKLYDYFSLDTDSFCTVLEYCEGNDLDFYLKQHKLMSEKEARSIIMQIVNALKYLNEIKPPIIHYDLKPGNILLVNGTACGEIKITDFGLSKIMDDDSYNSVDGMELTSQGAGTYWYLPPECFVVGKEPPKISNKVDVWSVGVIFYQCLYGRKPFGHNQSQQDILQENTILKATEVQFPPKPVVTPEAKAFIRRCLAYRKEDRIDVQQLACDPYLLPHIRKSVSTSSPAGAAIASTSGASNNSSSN

GRK2 = target: T11, GRK2 (Homo sapiens, UniProt P25098); assay: biochemical; details: read-out: % Enzyme Activity (relative to DMSO controls)
T11 construct: purchased Reaction Biology Corporation

TRKC = target: T12, TRKC (Homo sapiens, UniProt Q16288); assay: HotSpot kinase assay; type: biochemical; details: read-out: % Enzyme Activity (relative to DMSO controls)
T12 construct: purchased Reaction Biology Corporation

CK1epsilon = target: T13, CK1epsilon (Homo sapiens, UniProt P49674); assay: HotSpot kinase assay; type: biochemical; details: read-out: % Enzyme Activity (relative to DMSO controls)
T13 construct: purchased Reaction Biology Corporation

DYRK1/DYRK1A = target: T14, DYRK1/DYRK1A (Homo sapiens, UniProt Q13627); assay: HotSpot kinase assay; type: biochemical; details: read-out: % Enzyme Activity (relative to DMSO controls)
T14 construct: purchased Reaction Biology Corporation

ZAP70 = target: T15, ZAP70 (Homo sapiens, UniProt P43403); assay: HotSpot kinase assay; type: biochemical; details: read-out: % Enzyme Activity (relative to DMSO controls)
T15 construct: purchased Reaction Biology Corporation

MST1/STK4 = target: T16, MST1/STK4 (Homo sapiens, UniProt Q13043); assay: HotSpot kinase assay; type: biochemical; details: read-out: % Enzyme Activity (relative to DMSO controls)
T16 construct: purchased Reaction Biology Corporation

ARK5/NUAK1 = target: T17, ARK5/NUAK1 (Homo sapiens, UniProt O60285); assay: HotSpot kinase assay; type: biochemical; details: read-out: % Enzyme Activity (relative to DMSO controls)
T17 construct: purchased Reaction Biology Corporation

MEKK2 = target: T18, MEKK2 (Homo sapiens, UniProt Q9Y2U5); assay: HotSpot kinase assay; type: biochemical; details: read-out: % Enzyme Activity (relative to DMSO controls)
T18 construct: purchased Reaction Biology Corporation

MSSK1/STK23 = target: T19, MSSK1/STK23 (Homo sapiens, UniProt Q9UPE1); assay: HotSpot kinase assay; type: biochemical; details: read-out: % Enzyme Activity (relative to DMSO controls)
T19 construct: purchased Reaction Biology Corporation
T19 sequence (Q9UPE1 whole entry): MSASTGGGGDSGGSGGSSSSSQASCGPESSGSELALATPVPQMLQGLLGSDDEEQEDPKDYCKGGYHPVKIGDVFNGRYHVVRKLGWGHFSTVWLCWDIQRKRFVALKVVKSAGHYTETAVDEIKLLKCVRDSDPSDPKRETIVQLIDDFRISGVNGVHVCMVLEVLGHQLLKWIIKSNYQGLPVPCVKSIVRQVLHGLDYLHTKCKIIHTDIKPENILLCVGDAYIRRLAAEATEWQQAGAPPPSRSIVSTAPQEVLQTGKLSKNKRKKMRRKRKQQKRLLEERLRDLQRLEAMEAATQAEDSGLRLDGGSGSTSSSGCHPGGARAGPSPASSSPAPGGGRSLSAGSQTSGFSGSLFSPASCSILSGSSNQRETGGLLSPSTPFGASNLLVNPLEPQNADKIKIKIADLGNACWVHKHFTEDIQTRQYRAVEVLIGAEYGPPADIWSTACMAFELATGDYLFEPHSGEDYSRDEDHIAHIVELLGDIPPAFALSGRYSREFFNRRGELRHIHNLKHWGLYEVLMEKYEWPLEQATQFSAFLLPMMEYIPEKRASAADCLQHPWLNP

SNRK = target: T20, SNRK (Homo sapiens, UniProt Q9NRH2); assay: HotSpot kinase assay; type: biochemical; details: read-out: % Enzyme Activity (relative to DMSO controls)
T20 construct: purchased Reaction Biology Corporation

IKKe/IKBKE = target: T21, IKKe/IKBKE (Homo sapiens, UniProt Q14164); assay: HotSpot kinase assay; type: biochemical; details: read-out: % Enzyme Activity (relative to DMSO controls)
T21 construct: purchased Reaction Biology Corporation

STK33 = target: T22, STK33 (Homo sapiens, UniProt Q9BYT3); assay: HotSpot kinase assay; type: biochemical; details: read-out: % Enzyme Activity (relative to DMSO controls)
T22 construct: purchased Reaction Biology Corporation

mTOR/FRAP1 = target: T23, mTOR/FRAP1 (Homo sapiens, UniProt P42345); assay: HotSpot kinase assay; type: biochemical; details: read-out: % Enzyme Activity (relative to DMSO controls)
T23 construct: purchased Reaction Biology Corporation

EPHA5 = target: T24, EPHA5 (Homo sapiens, UniProt P54756); assay: HotSpot kinase assay; type: biochemical; details: read-out: % Enzyme Activity (relative to DMSO controls)
T24 construct: purchased Reaction Biology Corporation

EPHB3 = target: T25, EPHB3 (Homo sapiens, UniProt P54753); assay: HotSpot kinase assay; type: biochemical; details: read-out: % Enzyme Activity (relative to DMSO controls)
T25 construct: purchased Reaction Biology Corporation

MAST3 = target: T26, MAST3 (Homo sapiens, UniProt O60307); assay: HotSpot kinase assay; type: biochemical; details: read-out: % Enzyme Activity (relative to DMSO controls)
T26 construct: purchased Reaction Biology Corporation
T26 sequence (O60307 whole entry): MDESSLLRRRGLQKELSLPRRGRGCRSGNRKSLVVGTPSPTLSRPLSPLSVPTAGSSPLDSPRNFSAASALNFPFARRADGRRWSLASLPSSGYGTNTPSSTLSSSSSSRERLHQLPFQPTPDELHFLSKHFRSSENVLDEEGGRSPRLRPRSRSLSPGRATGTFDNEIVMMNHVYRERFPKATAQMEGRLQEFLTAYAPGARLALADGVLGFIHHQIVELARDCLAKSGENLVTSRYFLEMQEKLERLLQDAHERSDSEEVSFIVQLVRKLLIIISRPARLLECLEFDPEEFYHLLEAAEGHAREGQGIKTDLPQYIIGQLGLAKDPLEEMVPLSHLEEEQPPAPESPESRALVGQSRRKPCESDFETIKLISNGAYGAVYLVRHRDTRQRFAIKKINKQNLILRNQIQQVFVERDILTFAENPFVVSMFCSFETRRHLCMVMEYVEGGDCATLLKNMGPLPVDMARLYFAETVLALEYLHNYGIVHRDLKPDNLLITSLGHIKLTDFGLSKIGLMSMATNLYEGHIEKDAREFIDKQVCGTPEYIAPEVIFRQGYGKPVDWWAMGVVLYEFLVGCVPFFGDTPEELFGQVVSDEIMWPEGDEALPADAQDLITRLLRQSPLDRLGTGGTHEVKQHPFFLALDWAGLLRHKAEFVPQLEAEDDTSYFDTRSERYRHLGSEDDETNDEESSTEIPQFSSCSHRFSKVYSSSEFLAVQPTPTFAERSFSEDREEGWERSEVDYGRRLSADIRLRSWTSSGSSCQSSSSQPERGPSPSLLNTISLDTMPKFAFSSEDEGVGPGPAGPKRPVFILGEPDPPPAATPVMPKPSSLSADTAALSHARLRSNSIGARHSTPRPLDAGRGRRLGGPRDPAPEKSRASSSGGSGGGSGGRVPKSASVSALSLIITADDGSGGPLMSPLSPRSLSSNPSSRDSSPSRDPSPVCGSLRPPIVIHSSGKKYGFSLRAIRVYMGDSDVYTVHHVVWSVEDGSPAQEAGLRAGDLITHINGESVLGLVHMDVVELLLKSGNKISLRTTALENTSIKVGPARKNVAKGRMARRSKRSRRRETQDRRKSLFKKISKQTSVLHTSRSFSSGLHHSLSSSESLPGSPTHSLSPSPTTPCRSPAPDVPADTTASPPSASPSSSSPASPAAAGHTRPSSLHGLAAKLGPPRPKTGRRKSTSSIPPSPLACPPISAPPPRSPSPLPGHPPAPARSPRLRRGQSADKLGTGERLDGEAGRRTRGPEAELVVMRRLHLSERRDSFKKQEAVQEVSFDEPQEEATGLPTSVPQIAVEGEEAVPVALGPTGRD

AURORA C = target: T27, AURORA C (Homo sapiens, UniProt Q9UQB9); assay: HotSpot kinase assay; type: biochemical; details: read-out: % Enzyme Activity (relative to DMSO controls)
T27 construct: purchased Reaction Biology Corporation

PLSCR1 = PLSCR1 phosphorylation (IP/western), HSV-2 infected HaCaT cells; type: cell-based, human; details: 10 μM, 30 min
CAMKK2 = target: T28, CAMKK2 (Homo sapiens, UniProt Q96RR4); assay: HotSpot kinase assay; type: biochemical; details: read-out: % Enzyme Activity (relative to DMSO controls)
T28 construct: purchased Reaction Biology Corporation
T28 sequence (Q96RR4 whole entry): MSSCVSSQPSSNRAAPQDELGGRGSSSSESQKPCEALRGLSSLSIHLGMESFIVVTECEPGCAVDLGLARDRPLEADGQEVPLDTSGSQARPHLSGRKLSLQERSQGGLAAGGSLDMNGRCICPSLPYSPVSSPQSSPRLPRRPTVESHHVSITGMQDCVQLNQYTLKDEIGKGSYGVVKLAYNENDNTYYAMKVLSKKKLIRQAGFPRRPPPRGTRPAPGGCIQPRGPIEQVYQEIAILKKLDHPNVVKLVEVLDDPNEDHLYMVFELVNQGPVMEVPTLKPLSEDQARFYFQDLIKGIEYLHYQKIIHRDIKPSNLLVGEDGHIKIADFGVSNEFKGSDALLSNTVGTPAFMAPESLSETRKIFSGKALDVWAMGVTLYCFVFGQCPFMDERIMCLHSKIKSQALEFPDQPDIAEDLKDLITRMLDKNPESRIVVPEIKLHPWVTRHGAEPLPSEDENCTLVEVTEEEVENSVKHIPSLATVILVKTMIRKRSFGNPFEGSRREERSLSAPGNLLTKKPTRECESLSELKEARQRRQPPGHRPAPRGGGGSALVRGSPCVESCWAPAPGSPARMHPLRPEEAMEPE

CHK1 = target: T29, CHK1 (Homo sapiens, UniProt O14757); assay: HotSpot kinase assay; type: biochemical; details: read-out: % Enzyme Activity (relative to DMSO controls)
T29 construct: purchased Reaction Biology Corporation
T29 sequence (O14757 whole entry): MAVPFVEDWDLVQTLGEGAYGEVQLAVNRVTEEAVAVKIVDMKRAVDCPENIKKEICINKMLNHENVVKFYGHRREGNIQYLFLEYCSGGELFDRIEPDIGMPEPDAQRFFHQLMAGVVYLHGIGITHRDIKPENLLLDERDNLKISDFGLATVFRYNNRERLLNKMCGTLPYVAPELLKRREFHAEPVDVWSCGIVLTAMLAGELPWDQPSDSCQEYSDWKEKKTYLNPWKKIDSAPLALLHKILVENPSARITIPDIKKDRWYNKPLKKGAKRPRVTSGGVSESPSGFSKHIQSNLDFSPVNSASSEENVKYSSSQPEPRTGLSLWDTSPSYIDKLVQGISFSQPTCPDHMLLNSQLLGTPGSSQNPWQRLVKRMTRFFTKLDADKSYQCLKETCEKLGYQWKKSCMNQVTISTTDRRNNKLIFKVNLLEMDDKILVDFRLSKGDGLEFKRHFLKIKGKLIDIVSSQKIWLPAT

PLK4/SAK = target: T30, PLK4/SAK (Homo sapiens, UniProt O00444); assay: HotSpot kinase assay; type: biochemical; details: read-out: % Enzyme Activity (relative to DMSO controls)
T30 construct: purchased Reaction Biology Corporation

MEK1 = target: T31, MEK1 (Homo sapiens, UniProt Q02750); assay: HotSpot kinase assay; type: biochemical; details: read-out: % Enzyme Activity (relative to DMSO controls)
T31 construct: purchased Reaction Biology Corporation

NEK9 = target: T32, NEK9 (Homo sapiens, UniProt Q8TD19); assay: HotSpot kinase assay; type: biochemical; details: read-out: % Enzyme Activity (relative to DMSO controls)
T32 construct: purchased Reaction Biology Corporation

CK1a1L = target: T33, CK1a1L (Homo sapiens, UniProt Q8N752); assay: HotSpot kinase assay; type: biochemical; details: read-out: % Enzyme Activity (relative to DMSO controls)
T33 construct: purchased Reaction Biology Corporation
T33 sequence (Q8N752 whole entry): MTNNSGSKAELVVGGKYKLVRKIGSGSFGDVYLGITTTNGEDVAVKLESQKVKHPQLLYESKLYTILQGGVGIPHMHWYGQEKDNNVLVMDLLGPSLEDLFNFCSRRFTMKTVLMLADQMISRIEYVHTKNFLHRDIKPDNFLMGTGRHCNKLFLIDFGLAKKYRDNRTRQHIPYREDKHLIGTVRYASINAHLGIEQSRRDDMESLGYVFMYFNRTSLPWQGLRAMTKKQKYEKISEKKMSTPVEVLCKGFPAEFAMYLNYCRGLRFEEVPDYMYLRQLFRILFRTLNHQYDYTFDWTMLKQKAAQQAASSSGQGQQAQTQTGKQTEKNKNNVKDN

CDK5/P25 = target: T34, CDK5/P25 (Homo sapiens, UniProt Q00535); assay: HotSpot kinase assay; type: biochemical; details: read-out: % Enzyme Activity (relative to DMSO controls)
T34 construct: purchased Reaction Biology Corporation

TEC = target: T35, TEC (Homo sapiens, UniProt P42680); assay: HotSpot kinase assay; type: biochemical; details: read-out: % Enzyme Activity (relative to DMSO controls)
T35 construct: purchased Reaction Biology Corporation

P38b/MAPK11 = target: T36, P38b/MAPK11 (Homo sapiens, UniProt Q15759); assay: HotSpot kinase assay; type: biochemical; details: read-out: % Enzyme Activity (relative to DMSO controls)
T36 construct: purchased Reaction Biology Corporation

NEK5 = target: T37, NEK5 (Homo sapiens, UniProt Q6P3R8); assay: HotSpot kinase assay; type: biochemical; details: read-out: % Enzyme Activity (relative to DMSO controls)
T37 construct: purchased Reaction Biology Corporation

MEK5 = target: T38, MEK5 (Homo sapiens, UniProt Q13163); assay: HotSpot kinase assay; type: biochemical; details: read-out: % Enzyme Activity (relative to DMSO controls)
T38 construct: purchased Reaction Biology Corporation

FYN = target: T39, FYN (Homo sapiens, UniProt P06241); assay: HotSpot kinase assay; type: biochemical; details: read-out: % Enzyme Activity (relative to DMSO controls)
T39 construct: purchased Reaction Biology Corporation

Molecule `CO[C@@H]1[C@H](N(C)C(=O)CCC(=O)NCc2cn(CCCS(=O)(=O)O)nn2)C[C@H]2O[C@]1(C)n1c3ccccc3c3c4c(c5c6ccccc6n2c5c31)C(=O)NC4` [CIMSS] has a remaining activity at 10 µM (EPHB1) of 1.91%, a remaining activity at 10 µM (SRMS) of 91% and a remaining activity at 10 µM (SSTK/TSSK6) of 95.7%. For the same molecule, the remaining activity at 10 µM (PASK) was 41.6%, the remaining activity at 10 µM (LRRK2) was 1.69% and the remaining activity at 10 µM (FLT4/VEGFR3) was 1.97%. The remaining activity at 10 µM (TAOK1) was 6.83%, the remaining activity at 10 µM (TAOK3/JIK) was 12.8% and the remaining activity at 10 µM (YSK4/MAP3K19) was 3.4%. For the same molecule, the remaining activity at 10 µM (TLK2) was 67%, the remaining activity at 10 µM (GRK2) was 29.5% and the remaining activity at 10 µM (TRKC) was 0.34%. For the same molecule, the remaining activity at 10 µM (CK1epsilon) was 38.8%, the remaining activity at 10 µM (DYRK1/DYRK1A) was 2.33% and the remaining activity at 10 µM (ZAP70) was 13%. For the same molecule, the remaining activity at 10 µM (MST1/STK4) was 4.33%, the remaining activity at 10 µM (ARK5/NUAK1) was 1.83% and the remaining activity at 10 µM (MEKK2) was 8.32%. The remaining activity at 10 µM (MSSK1/STK23) was 67.7%, the remaining activity at 10 µM (SNRK) was 72.5% and the remaining activity at 10 µM (IKKe/IKBKE) was 1.47%. For the same molecule, the remaining activity at 10 µM (STK33) was 9.17%, the remaining activity at 10 µM (mTOR/FRAP1) was 112% and the remaining activity at 10 µM (EPHA5) was 52.7%. It also gave a remaining activity at 10 µM (EPHB3) of 28.9%, a remaining activity at 10 µM (MAST3) of 106% and a remaining activity at 10 µM (AURORA C) of 2.59%. For the same molecule, the “Phosphorylation of PLSCR1” value (PLSCR1) was “not”, the remaining activity at 10 µM (CAMKK2) was 1.86% and the remaining activity at 10 µM (CHK1) was 4.66%. It also gave a remaining activity at 10 µM (PLK4/SAK) of 6.73%, a remaining activity at 10 µM (MEK1) of 76.7% and a remaining activity at 10 µM (NEK9) of 2.81%. For the same molecule, the remaining activity at 10 µM (CK1a1L) was 82.8%, the remaining activity at 10 µM (CDK5/P25) was 7.17% and the remaining activity at 10 µM (TEC) was 19.9%. The remaining activity at 10 µM (P38b/MAPK11) was 84.5%, the remaining activity at 10 µM (NEK5) was 6.56% and the remaining activity at 10 µM (MEK5) was 40.4%. The remaining activity at 10 µM (FYN) was 2.59%.
